# ChEMBL document CHEMBL4130493, “An insight into the biological activities of heterocyclic-fatty acid hybrid molecules” (Eur J Med Chem, 2017)
# How the values were obtained:
# Staphylococcus aureus [1] = assay: Antibacterial activity against Staphylococcus aureus MSSA 22 incubated for 24 hrs by filter paper disc method; type: functional
# Pseudomonas aeruginosa [2] = assay: Antibacterial activity against Pseudomonas aeruginosa incubated for 24 hrs by filter paper disc method; type: functional
# Escherichia coli [3] = assay: Antibacterial activity against Escherichia coli K-12 incubated for 24 hrs by filter paper disc method; type: functional
# Bacillus subtilis [4] = assay: Antibacterial activity against Bacillus subtilis MTCC 121 incubated for 24 hrs by filter paper disc method; type: functional
# Candida albicans [5] = assay: Antifungal activity against Candida albicans IOA-109 at 50 ug/disc incubated for 5 to 6 days by disc diffusion method; type: functional; settings: read-out: DIZ
# Escherichia coli [6] = assay: Antibacterial activity against Escherichia coli MTCC 40 incubated for 24 hrs by serial two-fold dilution method; type: functional; settings: MTCC 40, 24 h
# Pseudomonas aeruginosa [7] = assay: Antibacterial activity against Pseudomonas aeruginosa MTCC 2453 incubated for 24 hrs by serial two-fold dilution method; type: functional; settings: MTCC 2453, 24 h
# Staphylococcus aureus [8] = assay: Antibacterial activity against Staphylococcus aureus MSSA 22 at 100 ug/mL incubated for 24 hrs by filter paper disc method; type: functional; settings: MSSA 22, 24 h, read-out: DIZ
# Escherichia coli [9] = assay: Antibacterial activity against Escherichia coli K-12 at 100 ug/mL incubated for 24 hrs by filter paper disc method; type: functional; settings: K-12, 24 h, read-out: DIZ
# Candida albicans [10] = assay: Antifungal activity against Candida albicans IOA-109 at 100 ug/mL incubated for 18 to 48 hrs by agar disc diffusion method; type: functional; settings: read-out: DIZ
# Salmonella typhimurium = assay: Antibacterial activity against Salmonella typhimurium MTCC98 at 100 ug/mL incubated for 24 hrs by filter paper disc method; type: functional, Salmonella enterica subsp. enterica serovar Typhimurium; settings: Salmonella enterica, MTCC98, 24 h; read-out: DIZ
# Bacillus subtilis [11] = assay: Antibacterial activity against Bacillus subtilis ATCC 6051 at 100 ug/mL incubated for 24 hrs by filter paper disc method; type: functional; settings: ATCC 6051, 24 h, read-out: DIZ
# Klebsiella pneumoniae = assay: Antibacterial activity against Klebsiella pneumoniae incubated for 24 hrs by filter paper disc method; type: functional
# Candida albicans [12] = assay: Antifungal activity against Candida albicans IOA-109 incubated for 18 to 48 hrs; type: functional
# A549 = assay: Cytotoxicity in human A549 cells by SRB assay; type: functional; settings: read-out: TC50 (the source's name)
# Plasmodium falciparum = assay: Antimalarial activity against Plasmodium falciparum infected in erythrocytes assessed as inhibition of increase in parasite density after 72 hrs; type: functional, organism-based
# Hep 3B2 = assay: Cytotoxicity in human Hep3B cells incubated for 48 hrs by MTT assay; type: functional, cell-based
smiles,measurement,setting,value
CCCCCCC(O)C/C=C\CCCCCCC(=O)N1N=C(C)CC1=O (stereo unspecified),diameter of the inhibition zone (DIZ),Staphylococcus aureus [1],10 - 18 mm
same,diameter of the inhibition zone (DIZ),Pseudomonas aeruginosa [2],10 - 18 mm
same,diameter of the inhibition zone (DIZ),Escherichia coli [3],10 - 18 mm
same,diameter of the inhibition zone (DIZ),Bacillus subtilis [4],10 - 18 mm
CCCCCCCC(O)CC/C=C\CCCCCC(=O)n1nnc2ccccc21 (stereo unspecified),zone of inhibition at 50 µg/disc,Candida albicans [5],16 to 20 mm
CCCCCCCCCCCCCC(=O)NN1C(=O)CSC1c1ccc(Br)cc1 (stereo unspecified),MIC,Escherichia coli [6],0.35 to 0.7 µg/mL
same,MIC,Pseudomonas aeruginosa [7],0.35 to 0.7 µg/mL
CCCCCCCCCCCCCCCCCc1nc(-c2cccc(O)c2)n[nH]1,zone of inhibition at 100 µg/mL,Staphylococcus aureus [8],13.1 to 22.2 mm
same,zone of inhibition at 100 µg/mL,Escherichia coli [9],13.1 to 22.2 mm
same,zone of inhibition at 100 µg/mL,Candida albicans [10],17.2 to 19 mm
same,zone of inhibition at 100 µg/mL,Salmonella typhimurium,13.1 to 22.2 mm
same,zone of inhibition at 100 µg/mL,Bacillus subtilis [11],13.1 to 22.2 mm
CCCCCCC(O)C/C=C\CCCCCCC(=O)Nn1c(C)ccc1C (stereo unspecified),diameter of the inhibition zone (DIZ),Staphylococcus aureus [1],15 - 19 mm
same,diameter of the inhibition zone (DIZ),Escherichia coli [3],15 - 19 mm
same,diameter of the inhibition zone (DIZ),Klebsiella pneumoniae,15 - 19 mm
same,diameter of the inhibition zone (DIZ),Bacillus subtilis [4],15 - 19 mm
same,diameter of the inhibition zone (DIZ),Candida albicans [12],17 - 20 mm
CC/C=C\C/C=C\C/C=C\CCCCCCCc1nnc(S)o1,CC50,A549,0.149 µM
C=C[C@H]1CN2CC[C@H]1C[C@H]2[C@H](O/C=C/C=C/C=C/C=C/C=C/C=C/CCCCCCCCCC)c1ccnc2ccc(OC)cc12,EC50,Plasmodium falciparum,7 to 20 µM
CCCCC/C=C\CCC(O)CCCCCCCC(=O)N1N=C(C)CC1=O (stereo unspecified),diameter of the inhibition zone (DIZ),Staphylococcus aureus [1],10 - 18 mm
same,diameter of the inhibition zone (DIZ),Pseudomonas aeruginosa [2],10 - 18 mm
same,diameter of the inhibition zone (DIZ),Escherichia coli [3],10 - 18 mm
same,diameter of the inhibition zone (DIZ),Bacillus subtilis [4],10 - 18 mm
CCCCCCCCCCCCCCCCCc1nc(-c2ccc(O)c(O)c2)n[nH]1,zone of inhibition at 100 µg/mL,Staphylococcus aureus [8],13.1 to 22.2 mm
same,zone of inhibition at 100 µg/mL,Escherichia coli [9],13.1 to 22.2 mm
same,zone of inhibition at 100 µg/mL,Candida albicans [10],17.2 to 19 mm
same,zone of inhibition at 100 µg/mL,Salmonella typhimurium,13.1 to 22.2 mm
same,zone of inhibition at 100 µg/mL,Bacillus subtilis [11],13.1 to 22.2 mm
C=CCCCCCCCCc1n[nH]c(=S)n1N,IC50,Hep 3B2,9.2 µM
CCCCCCCC/C=C\C(O)CCCCCCC(=O)n1nnc2ccccc21 (stereo unspecified),zone of inhibition at 50 µg/disc,Candida albicans [5],16 to 20 mm
C=CCCCCCCCCc1nc(-c2cccc(O)c2)n[nH]1,zone of inhibition at 100 µg/mL,Staphylococcus aureus [8],13.1 to 22.2 mm
same,zone of inhibition at 100 µg/mL,Escherichia coli [9],13.1 to 22.2 mm
same,zone of inhibition at 100 µg/mL,Candida albicans [10],17.2 to 19 mm
same,zone of inhibition at 100 µg/mL,Salmonella typhimurium,13.1 to 22.2 mm
same,zone of inhibition at 100 µg/mL,Bacillus subtilis [11],13.1 to 22.2 mm
CCCCCCCCCCCCCCCCCc1nc(-c2ccccc2)n[nH]1,zone of inhibition at 100 µg/mL,Staphylococcus aureus [8],13.1 to 22.2 mm
same,zone of inhibition at 100 µg/mL,Escherichia coli [9],13.1 to 22.2 mm
same,zone of inhibition at 100 µg/mL,Candida albicans [10],17.2 to 19 mm
same,zone of inhibition at 100 µg/mL,Salmonella typhimurium,13.1 to 22.2 mm
same,zone of inhibition at 100 µg/mL,Bacillus subtilis [11],13.1 to 22.2 mm
CCCCC/C=C\CCC(O)CCCCCCCc1nc(-c2ccc(O)c(O)c2)n[nH]1 (stereo unspecified),zone of inhibition at 100 µg/mL,Staphylococcus aureus [8],13.1 to 22.2 mm
same,zone of inhibition at 100 µg/mL,Escherichia coli [9],13.1 to 22.2 mm
same,zone of inhibition at 100 µg/mL,Candida albicans [10],17.2 to 19 mm
same,zone of inhibition at 100 µg/mL,Salmonella typhimurium,13.1 to 22.2 mm
same,zone of inhibition at 100 µg/mL,Bacillus subtilis [11],13.1 to 22.2 mm
CCCCCCCCCCCCCC(=O)NN1C(=O)CSC1c1ccc(C)cc1 (stereo unspecified),MIC,Escherichia coli [6],0.35 to 0.7 µg/mL
same,MIC,Pseudomonas aeruginosa [7],0.35 to 0.7 µg/mL
C=CCCCCCCCCc1n[nH]c(=S)o1,IC50,Hep 3B2,8.94 µM
C=C[C@H]1CN2CC[C@H]1C[C@H]2[C@H](OCCCCCCCC/C=C\C/C=C\C/C=C\CC)c1ccnc2ccc(OC)cc12,EC50,Plasmodium falciparum,7 to 20 µM
CCCCC/C=C\CCC(O)CCCCCCCc1nc2ccccc2c(=O)o1 (stereo unspecified),diameter of the inhibition zone (DIZ),Staphylococcus aureus [1],15 - 19 mm
same,diameter of the inhibition zone (DIZ),Escherichia coli [3],15 - 19 mm
same,diameter of the inhibition zone (DIZ),Klebsiella pneumoniae,15 - 19 mm
same,diameter of the inhibition zone (DIZ),Bacillus subtilis [4],15 - 19 mm
same,diameter of the inhibition zone (DIZ),Candida albicans [12],17 - 20 mm
C=C[C@H]1CN2CC[C@H]1C[C@H]2[C@H](OCCCCCCCCCCCCCCCCCC)c1ccnc2ccc(OC)cc12,EC50,Plasmodium falciparum,7 to 20 µM
CCCCCCC(O)C/C=C\CCCCCCc1nc2ccccc2c(=O)o1 (stereo unspecified),diameter of the inhibition zone (DIZ),Staphylococcus aureus [1],15 - 19 mm
same,diameter of the inhibition zone (DIZ),Escherichia coli [3],15 - 19 mm
same,diameter of the inhibition zone (DIZ),Klebsiella pneumoniae,15 - 19 mm
same,diameter of the inhibition zone (DIZ),Bacillus subtilis [4],15 - 19 mm
same,diameter of the inhibition zone (DIZ),Candida albicans [12],17 - 20 mm
C=C[C@H]1CN2CC[C@H]1C[C@H]2[C@H](O/C=C/C=C/C=C/C=C/C=C/CCCCCCCCCC)c1ccnc2ccc(OC)cc12,EC50,Plasmodium falciparum,7 to 20 µM
CCCCC/C=C\CCC(O)CCCCCCCc1nc(-c2ccccc2)n[nH]1 (stereo unspecified),zone of inhibition at 100 µg/mL,Staphylococcus aureus [8],13.1 to 22.2 mm
same,zone of inhibition at 100 µg/mL,Escherichia coli [9],13.1 to 22.2 mm
same,zone of inhibition at 100 µg/mL,Candida albicans [10],17.2 to 19 mm
same,zone of inhibition at 100 µg/mL,Salmonella typhimurium,13.1 to 22.2 mm
same,zone of inhibition at 100 µg/mL,Bacillus subtilis [11],13.1 to 22.2 mm
CC/C=C\C/C=C\C/C=C\CCCCCCCc1nnc(S)n1N,CC50,A549,0.264 µM
CCCCCCCCCCCCCC(=O)NN1C(=O)CSC1c1ccc([N+](=O)[O-])cc1 (stereo unspecified),MIC,Escherichia coli [6],0.35 to 0.7 µg/mL
same,MIC,Pseudomonas aeruginosa [7],0.35 to 0.7 µg/mL
CCCCCCCCCCCCCCCC(=O)NN1C(=O)CSC1c1ccc(C)cc1 (stereo unspecified),MIC,Escherichia coli [6],0.35 to 0.7 µg/mL
same,MIC,Pseudomonas aeruginosa [7],0.35 to 0.7 µg/mL
CCCCCCCC/C=C\CCCCCCCc1nc(-c2cccc(O)c2)n[nH]1,zone of inhibition at 100 µg/mL,Staphylococcus aureus [8],13.1 to 22.2 mm
same,zone of inhibition at 100 µg/mL,Escherichia coli [9],13.1 to 22.2 mm
same,zone of inhibition at 100 µg/mL,Candida albicans [10],17.2 to 19 mm
same,zone of inhibition at 100 µg/mL,Salmonella typhimurium,13.1 to 22.2 mm
same,zone of inhibition at 100 µg/mL,Bacillus subtilis [11],13.1 to 22.2 mm
